Experiment [1] relates to Mycobacterium smegmatis ATCC 607. The experiment can be described thus: Antimicrobial activity against Mycobacterium smegmatis ATCC 607 (agar plate-cylinder). Format: cell-based. As to conditions: standard bleomycin A2 (copper-free) assumed 1,000 mcg potency/mg. The protocol:
(§1) 2. ANT[…] MYC[…] ATCC 607 AND BACILLUS SUBTILIS
(§2) The antimicrobial activity was tested against the captioned test organisms by the method of agar plate-cylinder. The activity was recorded on the assumption that the activity of standard sample of bleomycin A2 (copper-free form) is 1,000 mcg poteney/mg.

A further experiment deals with Bacillus subtilis. As to the kind of experiment: Antimicrobial activity against Bacillus subtilis (agar plate-cylinder). Format: cell-based. The note with it: standard bleomycin A2 (copper-free) assumed 1,000 mcg potency/mg. The protocol:
as §1, §2

Experimental findings from patent US4472304A, “(Amido)N-substituted bleomycins, salts thereof and process for preparation thereof” (Nippon Kayaku Kabushiki Kaisha, priority 1981, dated 1984) are described below.

The structures appear in SMILES notation.

In the case of `Cc1c(N)nc(C(CC(N)=O)NCC(N)C(=O)NCCN)nc1C(=O)NC(C(=O)NC(C)C(O)C(C)C(=O)NC(C(=O)NCCc1nc(-c2nc(C(=O)NCCc3c[nH]cn3)cs2)cs1)C(C)O)C(OC1OC(CO)C(O)C(O)C1OC1OC(CO)C(O)C(OC(N)=O)C1O)c1cnc[nH]1` (stereo not shown) [Compound 6, 2-(4'-Imidazolyl)ethylamino-(amido)N--[2-aminoethyl]-BLM], in experiment [1], the “Antimicrobial potency of Cu-free compound against Mycobacterium smegmatis ATCC 607” value is reported as 2396 mcg potency/mg. The “Antimicrobial potency of Cu-free compound against Bacillus subtilis” value in the experiment with Bacillus subtilis is 4453 mcg potency/mg.

In the case of `Cc1c(N)nc(C(CC(N)=O)NCC(N)C(=O)NCc2ccccc2)nc1C(=O)NC(C(=O)NC(C)C(O)C(C)C(=O)NC(C(=O)NCCc1nc(-c2nc(C(=O)NCCc3c[nH]cn3)cs2)cs1)C(C)O)C(OC1OC(CO)C(O)C(O)C1OC1OC(CO)C(O)C(OC(N)=O)C1O)c1cnc[nH]1` (stereo not shown) [Compound 4, 2-(4'-Imidazolyl)ethylamino-(amido)N--[benzyl]-BLM], the “Antimicrobial potency of Cu-free compound against Mycobacterium smegmatis ATCC 607” value in experiment [1] worked out at 6595 mcg potency/mg. Besides, in the experiment on Bacillus subtilis, the “Antimicrobial potency of Cu-free compound against Bacillus subtilis” value is 579 mcg potency/mg.

Turning to `Cc1c(N)nc(C(CC(N)=O)NCC(N)C(=O)NC(Cc2ccccc2)c2ccccc2)nc1C(=O)NC(C(=O)NC(C)C(O)C(C)C(=O)NC(C(=O)NCCc1nc(-c2nc(C(=O)NCCCN(C)CCCNCc3ccc(Cl)cc3)cs2)cs1)C(C)O)C(OC1OC(CO)C(O)C(O)C1OC1OC(CO)C(O)C(OC(N)=O)C1O)c1cnc[nH]1` (stereo not shown) [Compound 41, 3-{N--methyl-N--[3-(p-chlorobenzyl)aminopropyl]amino}propyl-amino-(amido)N--[1,2-diphenylethyl]-BLM], in experiment [1], the “Antimicrobial potency of Cu-free compound against Mycobacterium smegmatis ATCC 607” value was determined as 23342 mcg potency/mg. Further, the “Antimicrobial potency of Cu-free compound against Bacillus subtilis” value in the experiment on Bacillus subtilis amounted to 521 mcg potency/mg.

Regarding `Cc1c(N)nc(C(CC(N)=O)NCC(N)C(=O)NC(c2ccccc2)c2ccccc2)nc1C(=O)NC(C(=O)NC(C)C(O)C(C)C(=O)NC(C(=O)NCCc1nc(-c2nc(C(=O)NCCCNC(C)c3ccccc3)cs2)cs1)C(C)O)C(OC1OC(CO)C(O)C(O)C1OC1OC(CO)C(O)C(OC(N)=O)C1O)c1cnc[nH]1` [Compound 31, 3-((S)-1'-phenylethylamino)propylamino-(amido)N--[diphenylmethyl]-BLM], the “Antimicrobial potency of Cu-free compound against Mycobacterium smegmatis ATCC 607” value in experiment [1] is given as 54645 mcg potency/mg. The “Antimicrobial potency of Cu-free compound against Bacillus subtilis” value in the experiment on Bacillus subtilis came out at 430 mcg potency/mg.

Turning to `CCCCCCCCNC(=O)C(N)CNC(CC(N)=O)c1nc(N)c(C)c(C(=O)NC(C(=O)NC(C)C(O)C(C)C(=O)NC(C(=O)NCCc2nc(-c3nc(C(=O)NCCCN(C)CCCNCCc4ccc(Cl)cc4)cs3)cs2)C(C)O)C(OC2OC(CO)C(O)C(O)C2OC2OC(CO)C(O)C(OC(N)=O)C2O)c2cnc[nH]2)n1` (stereo not shown) [Compound 44], the “Antimicrobial potency of Cu-free compound against Mycobacterium smegmatis ATCC 607” value in experiment [1] is 38750 mcg potency/mg. For the same molecule, the “Antimicrobial potency of Cu-free compound against Bacillus subtilis” value in the experiment on Bacillus subtilis is reported as 1898 mcg potency/mg.

As for `Cc1c(N)nc(C(CC(N)=O)NCC(N)C(=O)NCc2ccco2)nc1C(=O)NC(C(=O)NC(C)C(O)C(C)C(=O)NC(C(=O)NCCc1nc(-c2nc(C(=O)NCCCCNC(=N)N)cs2)cs1)C(C)O)C(OC1OC(CO)C(O)C(O)C1OC1OC(CO)C(O)C(OC(N)=O)C1O)c1cnc[nH]1` (stereo not shown) [Compound 18, 4-Guanidinobutylamino-(amido)N--[2-furylmethyl]-BLM], in experiment [1], the “Antimicrobial potency of Cu-free compound against Mycobacterium smegmatis ATCC 607” value is given as 19150 mcg potency/mg. In addition, in the experiment on Bacillus subtilis, the “Antimicrobial potency of Cu-free compound against Bacillus subtilis” value stood at 1285 mcg potency/mg.

Take `Cc1c(N)nc(C(CC(N)=O)NCC(N)C(=O)NC(Cc2ccccc2)c2ccccc2)nc1C(=O)NC(C(=O)NC(C)C(O)C(C)C(=O)NC(C(=O)NCCc1nc(-c2nc(C(=O)NCCCCNC(=N)N)cs2)cs1)C(C)O)C(OC1OC(CO)C(O)C(O)C1OC1OC(CO)C(O)C(OC(N)=O)C1O)c1cnc[nH]1` (stereo not shown) [Compound 16, 4-Guanidinobutylamino-(amido)N--[1',2'-diphenylethyl]-BLM]: the “Antimicrobial potency of Cu-free compound against Mycobacterium smegmatis ATCC 607” value in experiment [1] turned out to be 24480 mcg potency/mg. In the experiment with Bacillus subtilis, the “Antimicrobial potency of Cu-free compound against Bacillus subtilis” value is 520 mcg potency/mg.

With `CCCCNCCCN(C)CCCNC(=O)C(N)CNC(CC(N)=O)c1nc(N)c(C)c(C(=O)NC(C(=O)NC(C)C(O)C(C)C(=O)NC(C(=O)NCCc2nc(-c3nc(C(=O)NCCC[N+](C)(CCCN(Cc4ccccc4)Cc4ccccc4)Cc4ccccc4)cs3)cs2)C(C)O)C(OC2OC(CO)C(O)C(O)C2OC2OC(CO)C(O)C(OC(N)=O)C2O)c2cnc[nH]2)n1` (stereo not shown) [Compound 50, 3-{N--methyl-N--benzyl-N--[3-(dibenzylamino)propyl]amino}-propylamino-(amido)N--[3-[N--methyl-N--(3-n-butylaminopropyl)]-aminopropyl]-BLM], the “Antimicrobial potency of Cu-free compound against Mycobacterium smegmatis ATCC 607” value in experiment [1] is given as 1417 mcg potency/mg. The “Antimicrobial potency of Cu-free compound against Bacillus subtilis” value with Bacillus subtilis is recorded as 376 mcg potency/mg.

As for `CCCCCCCCCCCCNC(=O)C(N)CNC(CC(N)=O)c1nc(N)c(C)c(C(=O)NC(C(=O)NC(C)C(O)C(C)C(=O)NC(C(=O)NCCc2nc(-c3nc(C(=O)NCCCCNC(=N)N)cs3)cs2)C(C)O)C(OC2OC(CO)C(O)C(O)C2OC2OC(CO)C(O)C(OC(N)=O)C2O)c2cnc[nH]2)n1` (stereo not shown) [Compound 13, 4-Guanidinobutylamino-(amido)N--[lauryl]-BLM], in experiment [1], the “Antimicrobial potency of Cu-free compound against Mycobacterium smegmatis ATCC 607” value came out at 7650 mcg potency/mg. In addition, the “Antimicrobial potency of Cu-free compound against Bacillus subtilis” value with Bacillus subtilis amounted to 660 mcg potency/mg.

With `Cc1c(N)nc(C(CC(N)=O)NCC(N)C(=O)Nc2ccc3ccccc3c2)nc1C(=O)NC(C(=O)NC(C)C(O)C(C)C(=O)NC(C(=O)NCCc1nc(-c2nc(C(=O)NCCCCNC(=N)N)cs2)cs1)C(C)O)C(OC1OC(CO)C(O)C(O)C1OC1OC(CO)C(O)C(OC(N)=O)C1O)c1cnc[nH]1` (stereo not drawn) [Compound 17, 4-Guanidinobutylamino-(amido)N--[β-naphthyl]-BLM], in experiment [1], the “Antimicrobial potency of Cu-free compound against Mycobacterium smegmatis ATCC 607” value was determined as 33650 mcg potency/mg. Also, in the experiment on Bacillus subtilis, the “Antimicrobial potency of Cu-free compound against Bacillus subtilis” value was found to be 1295 mcg potency/mg.

`Cc1c(N)nc(C(CC(N)=O)NCC(N)C(=O)NC(C)C)nc1C(=O)NC(C(=O)NC(C)C(O)C(C)C(=O)NC(C(=O)NCCc1nc(-c2nc(C(=O)NCCc3c[nH]cn3)cs2)cs1)C(C)O)C(OC1OC(CO)C(O)C(O)C1OC1OC(CO)C(O)C(OC(N)=O)C1O)c1cnc[nH]1` (stereo not shown) [Compound 3, 2-(4'-Imidazolyl)ethylamino-(amido)N--[isopropyl]-BLM]: the “Antimicrobial potency of Cu-free compound against Mycobacterium smegmatis ATCC 607” value in experiment [1] is on record as 2778 mcg potency/mg. The “Antimicrobial potency of Cu-free compound against Bacillus subtilis” value in the experiment with Bacillus subtilis is reported as 593 mcg potency/mg.

As to `Cc1c(N)nc(C(CC(N)=O)NCC(N)C(=O)NC(c2ccccc2)c2ccccc2)nc1C(=O)NC(C(=O)NC(C)C(O)C(C)C(=O)NC(C(=O)NCCc1nc(-c2nc(C(=O)NCCCCNC(=N)N)cs2)cs1)C(C)O)C(OC1OC(CO)C(O)C(O)C1OC1OC(CO)C(O)C(OC(N)=O)C1O)c1cnc[nH]1` (stereo not shown) [Compound 15, 4-Guanidinobutylamino-(amido)N--[diphenylmethyl]-BLM], the “Antimicrobial potency of Cu-free compound against Mycobacterium smegmatis ATCC 607” value in experiment [1] is on record as 42320 mcg potency/mg. Further, the “Antimicrobial potency of Cu-free compound against Bacillus subtilis” value with Bacillus subtilis is 980 mcg potency/mg.

Consider `CCCCCCCCNC(=O)C(N)CNC(CC(N)=O)c1nc(N)c(C)c(C(=O)NC(C(=O)NC(C)C(O)C(C)C(=O)NC(C(=O)NCCc2nc(-c3nc(C(=O)NCCCN(C)CCCNCc4ccc(Cl)cc4)cs3)cs2)C(C)O)C(OC2OC(CO)C(O)C(O)C2OC2OC(CO)C(O)C(OC(N)=O)C2O)c2cnc[nH]2)n1` (stereo not shown) [Compound 40, 3-{N--methyl-N--[3-(p-chlorobenzyl)aminopropyl]amino}-propylamino-(amido)N--[octyl]-BLM], for which the “Antimicrobial potency of Cu-free compound against Mycobacterium smegmatis ATCC 607” value in experiment [1] worked out at 38200 mcg potency/mg. Besides, in the experiment on Bacillus subtilis, the “Antimicrobial potency of Cu-free compound against Bacillus subtilis” value is on record as 1808 mcg potency/mg.

For the molecule `CCCCCCCCNC(=O)C(N)CNC(CC(N)=O)c1nc(N)c(C)c(C(=O)NC(C(=O)NC(C)C(O)C(C)C(=O)NC(C(=O)NCCc2nc(-c3nc(C(=O)NCCCCNC(=N)N)cs3)cs2)C(C)O)C(OC2OC(CO)C(O)C(O)C2OC2OC(CO)C(O)C(OC(N)=O)C2O)c2cnc[nH]2)n1` (stereo not shown) [Compound 10, 4-Guanidinobutylamino-(amido)N--[octyl]-BLM], the “Antimicrobial potency of Cu-free compound against Mycobacterium smegmatis ATCC 607” value in experiment [1] is on record as 33700 mcg potency/mg. Also, the “Antimicrobial potency of Cu-free compound against Bacillus subtilis” value in the experiment on Bacillus subtilis came to 1500 mcg potency/mg.

In the case of `Cc1c(N)nc(C(CC(N)=O)NCC(N)C(=O)NC(C)C)nc1C(=O)NC(C(=O)NC(C)C(O)C(C)C(=O)NC(C(=O)NCCc1nc(-c2nc(C(=O)NCCCCNC(=N)N)cs2)cs1)C(C)O)C(OC1OC(CO)C(O)C(O)C1OC1OC(CO)C(O)C(OC(N)=O)C1O)c1cnc[nH]1` (stereo not shown) [Compound 7, 4-Guanidinobutylamino-(amido)N--[isopropyl]-BLM], the “Antimicrobial potency of Cu-free compound against Mycobacterium smegmatis ATCC 607” value in experiment [1] is listed as 6425 mcg potency/mg. Moreover, the “Antimicrobial potency of Cu-free compound against Bacillus subtilis” value in the experiment with Bacillus subtilis is given as 1950 mcg potency/mg.

In the case of `Cc1c(N)nc(C(CC(N)=O)NCC(N)C(=O)NCCCCCCCCCCCCN)nc1C(=O)NC(C(=O)NC(C)C(O)C(C)C(=O)NC(C(=O)NCCc1nc(-c2nc(C(=O)NCCCNC(C)c3ccccc3)cs2)cs1)C(C)O)C(OC1OC(CO)C(O)C(O)C1OC1OC(CO)C(O)C(OC(N)=O)C1O)c1cnc[nH]1` [Compound 29, 3-((S)-1'-phenylethylamino)propylamino-(amido)N--[do-decanyl]-BLM], the “Antimicrobial potency of Cu-free compound against Mycobacterium smegmatis ATCC 607” value in experiment [1] amounted to 14200 mcg potency/mg. In addition, in the experiment with Bacillus subtilis, the “Antimicrobial potency of Cu-free compound against Bacillus subtilis” value is 5400 mcg potency/mg.

Turning to `Cc1c(N)nc(C(CC(N)=O)NCC(N)C(=O)NC(Cc2ccccc2)c2ccccc2)nc1C(=O)NC(C(=O)NC(C)C(O)C(C)C(=O)NC(C(=O)NCCc1nc(-c2nc(C(=O)NCCCNC(C)c3ccccc3)cs2)cs1)C(C)O)C(OC1OC(CO)C(O)C(O)C1OC1OC(CO)C(O)C(OC(N)=O)C1O)c1cnc[nH]1` [Compound 30, 3-((S)-1'-phenylethylamino)propylamino-(amido)N--[1',2'-diphenyl-ethyl]-BLM], in experiment [1], the “Antimicrobial potency of Cu-free compound against Mycobacterium smegmatis ATCC 607” value came out at 33802 mcg potency/mg. In the experiment on Bacillus subtilis, the “Antimicrobial potency of Cu-free compound against Bacillus subtilis” value came out at 190 mcg potency/mg.
